The results in this text go back to the SangsterLogP compilation.

As usually defined, the logP is the decadic logarithm of the partition coefficient of the neutral form, usually between octanol and water. Read a high logP as higher lipophilicity. Take `CC1=C(C(=O)O)N2C(=O)C(NC(=O)Cc3ccc(-c4c(Cl)cccc4Cl)o3)C2SC1` (centres undefined): the logP was 3.6. Under `CC1=C(C(=O)O)N2C(=O)C(NC(=O)Cc3ccc(-c4ccccc4)o3)C2SC1` (centres undefined) stands 1.66; under `CC1=C(C(=O)O)N2C(=O)C(NC(=O)Cc3ccco3)C2SC1` (centres undefined), -0.13. On to `CC1=C(C(=O)O)N2C(=O)C(NC(=O)Cc3ccc(-c4ccc(Cl)cc4)o3)C2SC1` (centres undefined), for which the lipophilicity (logP) is 2.38.

As to `CC(=O)OCC1=C(C(=O)O)N2C(=O)C(NC(=O)Cc3ccc(-c4ccccc4Cl)o3)C2SC1` (centres undefined), the logP worked out at 2.42.

Consider `CC(=O)OCC1=C(C(=O)O)N2C(=O)C(NC(=O)Cc3ccco3)C2SC1` (centres undefined), for which the logP was determined as 0.09. Regarding `CC(=O)OCC1=C(C(=O)O)N2C(=O)C(NC(=O)Cc3ccc([N+](=O)[O-])o3)C2SC1` (centres undefined), the logP came out at 0.72.

The compound `CC(=O)OCC1=C(C(=O)O)N2C(=O)C(NC(=O)Cc3ccc(-c4ccc(Cl)cc4)o3)C2SC1` (centres undefined) gave a log partition coefficient (logP) of 2.76. As for `CC(=O)OCC1=C(C(=O)O)N2C(=O)C(NC(=O)Cc3ccc(-c4c(Cl)cccc4Cl)o3)C2SC1` (centres undefined), the logP was 2.78.
